The structures appear in SMILES notation.

The first experiment deals with Erysiphe graminis tritici (powdery mildew). Description: Greenhouse Test 1, foliar spray fungicide screen (POWD MDEW), host wheat. The class given is in vivo. To be noted: disease control rating, 400 ppm (+++ at 100 ppm).
Turning to `CC(C)c1ccc(CCNc2ncnc3c(F)cccc23)cc1` [Example 96, 8-fluoro-N-[2-[4-(i-propyl)phenyl]ethyl]-4-quinazolinamine], the “POWD MDEW” value is recorded as “+++ (+++ = 90-100% control at 100 ppm)”.

With `Cc1cccc(CCOc2ncnc3ccccc23)c1` [Example 97, 4-[2-(3-methylphenyl)ethoxy]quinazoline], the “POWD MDEW” value is “+++ (+++ = 90-100% control at 100 ppm)”.

As for `Cc1ccc(CCOc2ncnc3c(F)cccc23)cc1` [Example 99], the “POWD MDEW” value is “+++ (+++ = 90-100% control at 100 ppm)”.

Turning to `CC(C)(C)c1ccc(CCNc2ncnc3c(F)cccc23)cc1` [Example 100, 8-fluoro-N-[2-[4-(t-butyl)phenyl]ethyl]-4-quinazolinamine], the “POWD MDEW” value was “+++ (+++ = 90-100% control at 100 ppm)”.

Another experiment deals with Pyricularia oryzae (rice blast).
Experiment: not given
The class given is in vivo. To be noted: disease control rating, foliar spray, host rice; 400 ppm (+++ at 100 ppm).
For the compound `CC(C)c1ccc(CCNc2ncnc3c(F)cccc23)cc1` [Example 96, 8-fluoro-N-[2-[4-(i-propyl)phenyl]ethyl]-4-quinazolinamine], the “RICE BLAST” value is given as “+++ (+++ = 90-100% control at 100 ppm)”.

For `Cc1cccc(CCOc2ncnc3ccccc23)c1` [Example 97, 4-[2-(3-methylphenyl)ethoxy]quinazoline], the “RICE BLAST” value is reported as “++ (++ = 90-100% control at 400 ppm)”.

Regarding `Cc1ccc(CCOc2ncnc3c(F)cccc23)cc1` [Example 99], the “RICE BLAST” value is “- (- = 0-19% control at 400 ppm)”.

Consider `CC(C)(C)c1ccc(CCNc2ncnc3c(F)cccc23)cc1` [Example 100, 8-fluoro-N-[2-[4-(t-butyl)phenyl]ethyl]-4-quinazolinamine], for which the “RICE BLAST” value is “+++ (+++ = 90-100% control at 100 ppm)”.

A further experiment relates to Puccinia recondita tritici (leaf rust). Description: Greenhouse Test 1, foliar spray fungicide screen (LEAF RUST), host wheat. The class given is in vivo. To be noted: disease control rating, 400 ppm (+++ at 100 ppm).
Take `CC(C)c1ccc(CCNc2ncnc3c(F)cccc23)cc1` [Example 96, 8-fluoro-N-[2-[4-(i-propyl)phenyl]ethyl]-4-quinazolinamine]: the “LEAF RUST” value was “+++ (+++ = 90-100% control at 100 ppm)”.

Take `Cc1cccc(CCOc2ncnc3ccccc23)c1` [Example 97, 4-[2-(3-methylphenyl)ethoxy]quinazoline]: the “LEAF RUST” value is recorded as “+++ (+++ = 90-100% control at 100 ppm)”.

Consider `Cc1ccc(CCOc2ncnc3c(F)cccc23)cc1` [Example 99], for which the “LEAF RUST” value is recorded as “+++ (+++ = 90-100% control at 100 ppm)”.

`CC(C)(C)c1ccc(CCNc2ncnc3c(F)cccc23)cc1` [Example 100, 8-fluoro-N-[2-[4-(t-butyl)phenyl]ethyl]-4-quinazolinamine]: the “LEAF RUST” value was “+++ (+++ = 90-100% control at 100 ppm)”.

The next experiment concerns Botrytis cinerea (gray mold). Description: Greenhouse Test 1, foliar spray fungicide screen (GRAY MOLD), host grape berries. To be noted: disease control rating, 400 ppm (+++ at 100 ppm). The class given is in vivo.
Take `CC(C)c1ccc(CCNc2ncnc3c(F)cccc23)cc1` [Example 96, 8-fluoro-N-[2-[4-(i-propyl)phenyl]ethyl]-4-quinazolinamine]: the “GRAY MOLD” value is recorded as “- (- = 0-19% control at 400 ppm)”.

Turning to `Cc1cccc(CCOc2ncnc3ccccc23)c1` [Example 97, 4-[2-(3-methylphenyl)ethoxy]quinazoline], the “GRAY MOLD” value is listed as “- (- = 0-19% control at 400 ppm)”.

On to `Cc1ccc(CCOc2ncnc3c(F)cccc23)cc1` [Example 99], for which the “GRAY MOLD” value was “- (- = 0-19% control at 400 ppm)”.

Turning to `CC(C)(C)c1ccc(CCNc2ncnc3c(F)cccc23)cc1` [Example 100, 8-fluoro-N-[2-[4-(t-butyl)phenyl]ethyl]-4-quinazolinamine], the “GRAY MOLD” value is on record as “- (- = 0-19% control at 400 ppm)”.

The subject of another experiment is Pseudoperonospora cubensis (downy mildew). Description: Greenhouse Test 1, foliar spray fungicide screen (DOWN MDEW), host squash. To be noted: disease control rating, 400 ppm (+++ at 100 ppm). The class given is in vivo.
`CC(C)c1ccc(CCNc2ncnc3c(F)cccc23)cc1` [Example 96, 8-fluoro-N-[2-[4-(i-propyl)phenyl]ethyl]-4-quinazolinamine]: the “DOWN MDEW” value is on record as “+++ (+++ = 90-100% control at 100 ppm)”.

Consider `Cc1cccc(CCOc2ncnc3ccccc23)c1` [Example 97, 4-[2-(3-methylphenyl)ethoxy]quinazoline], for which the “DOWN MDEW” value was “++ (++ = 90-100% control at 400 ppm)”.

In the case of `Cc1ccc(CCOc2ncnc3c(F)cccc23)cc1` [Example 99], the “DOWN MDEW” value is “+++ (+++ = 90-100% control at 100 ppm)”.

As for `CC(C)(C)c1ccc(CCNc2ncnc3c(F)cccc23)cc1` [Example 100, 8-fluoro-N-[2-[4-(t-butyl)phenyl]ethyl]-4-quinazolinamine], the “DOWN MDEW” value is reported as “+++ (+++ = 90-100% control at 100 ppm)”.

Another experiment deals with Southern corn rootworm (Diabrotica undecimpuctata howardi Barber). Description: Mite/insect screen, soil treatment (CRW). To be noted: Diabrotica; percent mortality; soil treatment, CRW rate 12.00 ppm; read-out: CRW RESULTS %. It is filed as in vivo. The essentials:
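Five 2–3 instar larvae were placed on dry sandy soil with a presoaked corn seed after the soil had received 1 mL of compound solution and dried 6–12 h; cups were kept capped at 23°C. Mortality (%) and phytotoxicity were read after standard exposure. Formulation: acetone/alcohol with emulsifiers, water-diluted.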
In the case of `CC(C)c1ccc(CCNc2ncnc3c(F)cccc23)cc1` [Example 96, 8-fluoro-N-[2-[4-(i-propyl)phenyl]ethyl]-4-quinazolinamine], the mortality at 12 ppm was found to be 0%.

For the compound `Cc1ccc(CCOc2ncnc3c(F)cccc23)cc1` [Example 99], the mortality at 12 ppm turned out to be 0%.

Regarding `CC(C)(C)c1ccc(CCNc2ncnc3c(F)cccc23)cc1` [Example 100, 8-fluoro-N-[2-[4-(t-butyl)phenyl]ethyl]-4-quinazolinamine], the mortality at 12 ppm came to 0%.

Still in this experiment, the particulars now being: Diabrotica; percent mortality; soil treatment, CRW rate 24.00 ppm; read-out: CRW RESULTS %.
As to `CC(C)c1ccc(CCNc2ncnc3c(F)cccc23)cc1` [Example 96, 8-fluoro-N-[2-[4-(i-propyl)phenyl]ethyl]-4-quinazolinamine], the mortality at 24 ppm came to 0%.

Regarding `Cc1cccc(CCOc2ncnc3ccccc23)c1` [Example 97, 4-[2-(3-methylphenyl)ethoxy]quinazoline], the mortality at 24 ppm was determined as 0%.

Take `Cc1ccc(CCOc2ncnc3c(F)cccc23)cc1` [Example 99]: the mortality at 24 ppm stood at 0%.

With `CC(C)(C)c1ccc(CCNc2ncnc3c(F)cccc23)cc1` [Example 100, 8-fluoro-N-[2-[4-(t-butyl)phenyl]ethyl]-4-quinazolinamine], the mortality at 24 ppm was 100%.

The subject of a further experiment is southern armyworm (Spodopetra eridania Cramer). Description: Mite/insect screen, sprayed squash leaves (SAW). The class given is in vivo. To be noted: Spodoptera eridania, percent mortality; spray rate 200 ppm; read-out: SAW RESULTS %. The essentials:
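Acetone/alcohol (50:50) + emulsifier blends 23 g/L and 13 g/L; water dilution to test concs. Spray both leaf surfaces to runoff, dry 1 h. For armyworm, 2 excised uninfested leaves into Petri dish with larvae. Readout: % mortality, phytotoxicity.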
As to `CC(C)c1ccc(CCNc2ncnc3c(F)cccc23)cc1` [Example 96, 8-fluoro-N-[2-[4-(i-propyl)phenyl]ethyl]-4-quinazolinamine], the mortality at 200 ppm was found to be 100%.

For the compound `Cc1ccc(CCOc2ncnc3c(F)cccc23)cc1` [Example 99], the mortality at 200 ppm was 0%.

Turning to `CC(C)(C)c1ccc(CCNc2ncnc3c(F)cccc23)cc1` [Example 100, 8-fluoro-N-[2-[4-(t-butyl)phenyl]ethyl]-4-quinazolinamine], the mortality at 200 ppm worked out at 80%.

Staying with this experiment, now noted: Spodoptera eridania, percent mortality; spray rate 400 ppm; read-out: SAW RESULTS %.
`CC(C)c1ccc(CCNc2ncnc3c(F)cccc23)cc1` [Example 96, 8-fluoro-N-[2-[4-(i-propyl)phenyl]ethyl]-4-quinazolinamine]: the mortality at 400 ppm worked out at 100%.

In the case of `Cc1cccc(CCOc2ncnc3ccccc23)c1` [Example 97, 4-[2-(3-methylphenyl)ethoxy]quinazoline], the mortality at 400 ppm turned out to be 0%.

Turning to `Cc1ccc(CCOc2ncnc3c(F)cccc23)cc1` [Example 99], the mortality at 400 ppm turned out to be 0%.

As for `CC(C)(C)c1ccc(CCNc2ncnc3c(F)cccc23)cc1` [Example 100, 8-fluoro-N-[2-[4-(t-butyl)phenyl]ethyl]-4-quinazolinamine], the mortality at 400 ppm came to 0%.

For a further experiment, the system named is Twospotted spider mites (Tetranychus urticae Koch). Description: Mite/insect screen, sprayed squash cotyledons (SM). The class given is in vivo. To be noted: Tetranychus urticae, percent mortality; spray rate 200 ppm; read-out: SM RESULTS %. In short, it runs like this: (§1)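 Steps: formulate compound in acetone/alcohol 50:50 carrying emulsifiers; dilute with water; spray leaves until runoff on upper and lower surfaces; air-dry one hour; for armyworm, excise two […] leaves into a dish of larvae; after exposure, score mortality and plant injury.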
Consider `CC(C)c1ccc(CCNc2ncnc3c(F)cccc23)cc1` [Example 96, 8-fluoro-N-[2-[4-(i-propyl)phenyl]ethyl]-4-quinazolinamine], for which the mortality at 200 ppm is 50%.

As for `Cc1ccc(CCOc2ncnc3c(F)cccc23)cc1` [Example 99], the mortality at 200 ppm is 100%.

In the case of `CC(C)(C)c1ccc(CCNc2ncnc3c(F)cccc23)cc1` [Example 100, 8-fluoro-N-[2-[4-(t-butyl)phenyl]ethyl]-4-quinazolinamine], the mortality at 200 ppm is 80%.

The same experiment, now with this note: Tetranychus urticae, percent mortality; spray rate 400 ppm; read-out: SM RESULTS %.
For `CC(C)c1ccc(CCNc2ncnc3c(F)cccc23)cc1` [Example 96, 8-fluoro-N-[2-[4-(i-propyl)phenyl]ethyl]-4-quinazolinamine], the mortality at 400 ppm stood at 0%.

For the compound `Cc1cccc(CCOc2ncnc3ccccc23)c1` [Example 97, 4-[2-(3-methylphenyl)ethoxy]quinazoline], the mortality at 400 ppm was 0%.

`Cc1ccc(CCOc2ncnc3c(F)cccc23)cc1` [Example 99]: the mortality at 400 ppm is 0%.

Take `CC(C)(C)c1ccc(CCNc2ncnc3c(F)cccc23)cc1` [Example 100, 8-fluoro-N-[2-[4-(t-butyl)phenyl]ethyl]-4-quinazolinamine]: the mortality at 400 ppm was determined as 0%.

For the next experiment, the system named is melon aphids (Aphis gossypii Glover). Description: Mite/insect screen, sprayed squash cotyledons (MA). It is filed as in vivo. To be noted: Aphis gossypii, percent mortality; spray rate 200 ppm; read-out: MA RESULTS %. In short, it runs like this:
as §1
For the compound `CC(C)c1ccc(CCNc2ncnc3c(F)cccc23)cc1` [Example 96, 8-fluoro-N-[2-[4-(i-propyl)phenyl]ethyl]-4-quinazolinamine], the mortality at 200 ppm came out at 50%.

`Cc1ccc(CCOc2ncnc3c(F)cccc23)cc1` [Example 99]: the mortality at 200 ppm is 100%.

On to `CC(C)(C)c1ccc(CCNc2ncnc3c(F)cccc23)cc1` [Example 100, 8-fluoro-N-[2-[4-(t-butyl)phenyl]ethyl]-4-quinazolinamine], for which the mortality at 200 ppm worked out at 80%.

Still in this experiment, the particulars now being: Aphis gossypii, percent mortality; spray rate 400 ppm; read-out: MA RESULTS %.
For the compound `CC(C)c1ccc(CCNc2ncnc3c(F)cccc23)cc1` [Example 96, 8-fluoro-N-[2-[4-(i-propyl)phenyl]ethyl]-4-quinazolinamine], the mortality at 400 ppm is 0%.

In the case of `Cc1cccc(CCOc2ncnc3ccccc23)c1` [Example 97, 4-[2-(3-methylphenyl)ethoxy]quinazoline], the mortality at 400 ppm worked out at 0%.

In the case of `Cc1ccc(CCOc2ncnc3c(F)cccc23)cc1` [Example 99], the mortality at 400 ppm worked out at 0%.

As for `CC(C)(C)c1ccc(CCNc2ncnc3c(F)cccc23)cc1` [Example 100, 8-fluoro-N-[2-[4-(t-butyl)phenyl]ethyl]-4-quinazolinamine], the mortality at 400 ppm is 0%.

The values above are taken from EP0326329B1, “Quinazoline derivatives useful as insecticides” (Dow AgroSciences LLC, priority 1988, dated 1989).
